Tests used:
[1] = system: prostate intraepithelial neoplasia (PIN); assay: Phase IIa prostate cancer chemoprevention human clinical trial (PIN regression); format: in vivo; conditions: 60 mg daily for 4 months
Protocol: A Phase IIa, open labeled non randomized single center study with 21 human subjects was conducted. […] After 4 months, patients are rebiopsied (8 biopsies) and PIN status is reassessed. Twenty-one patients entered the study and sixteen patients have completed the study.

[2] = system: human stromal fibroblast cells; assay: TGF synthesis in human stromal fibroblast cells; format: cell-based
[3] = system: prostate tumor in TRAMP mice; assay: Prostatic wholemount, histology and large T antigen immunohistochemistry in TRAMP mice; format: in vivo, mouse; conditions: vs placebo at 15 weeks
Protocol: This present study focuses on the histological and molecular changes associated with development of prostate tumor in control animals and the mechanism of toremifene chemopreventive action with TRAMP animals which are bred, screened and treated with sustained-release drug pellets. At predetermined times, groups of 5 animals were sacrificed and their prostates were removed for analysis. The prostate glands were evaluated for the presence of tumor by histology, wholemount dissections, and large T antigen immunohistochemistry. To date, the Placebo and the Toremifene treatments have been completed for the 7, 10, 15 and 20 week time-points and the results are described below.
Prostatic wholemounts for 7, 10, 15, and 20 weeks for the various groups have been completed. […] By 20 weeks, there is a striking delay in tumor occurrence in the Toremifene treated group up to 35 weeks FIG. 4). […] For histological evaluation, tissue samples were fixed, processed and paraffin embedded. Sections ([…]) were cut and stained by routine H&E method.

[4] = system: TRAMP mouse ventral prostate; assay: Histological examination (H&E) of ventral prostate tissue of TRAMP mice; format: in vivo; conditions: toremifene-treated 30-week-old TRAMP mouse vs placebo-treated 16-week-old
Protocol: 1) Prostate wholemount analysis is serially performed to detect changes in prostate ductal morphology over time with and without treatment; examples are shown in FIG. 2. Tissue sections are evaluated histologically by H&E and Masson-trichome standard staining. The emergence of PIN is assessed and graded (I-mild to III-severe).
Tumors from the placebo and high toremifene-treated groups taken at the time of palpation were evaluated histologically. FIG. 2A is an H&E section of the ventral prostate of a 17-week-old normal adult mouse.

[5] = system: prostate cancer in the ventral prostate of TRAMP mice; assay: Chemopreventive activity of toremifene pellets in TRAMP transgenic mice (palpable tumor formation); format: in vivo, mouse
Description: The study of prostate cancer chemoprevention has been hindered by the lack of appropriate animal models. The recent development of the transgenic adenocarcinoma mouse prostate (TRAMP) model enables the study of chemoprevention. In the TRAMP model, which is described in Greenberg et al., AProstate cancer in a transgenic mouse, Proc. Natl Acad. Sci. USA, 1995, Vol. 92, pages 3439-3443, the PB-SV40 large T antigen (PB-Tag) transgene is expressed specifically in the epithelial cells of the murine prostate. […]
A study was undertaken to test the efficacy of chemopreventive agents in TRAMP transgenic animals (PBTag X FVBwt) (provided by Dr. Norman Greenberg, Baylor College of Medicine, TX). […] The efficacy of the treatment was measured by the absence of palpable tumor formation. The murine prostate tumors were harvested and evaluated by molecular and histological techniques.

CN(C)CCOc1ccc(/C(=C(/CCCl)c2ccccc2)c2ccccc2)cc1 [Toremifene, toremifene]
serum PSA, serum free testosterone, serum total testosterone and serum estradiol [1]: remained in the normal ranges
patients with regression of PIN to benign or atrophic prostate tissue (complete response) ([1]; 16 patients completed): 12 out of 16
TGF? synthesis [2]: significantly induce TGF? synthesis
ductal development and tissue differentiation (H&E histology) [3]: inhibited the ductal development and tissue differentiation
glandular architecture of the prostate (H&E) [4]: retains much of the normal glandular architecture
mitotic index [4]: much lower than that for the placebo-treated animal
delay of time to tumors in 25% of the animals ([5]; high and low toremifene groups versus placebo): 7-8 weeks
week by which tumors were palpable in 25% of the animals ([5]; high and low toremifene groups, placebo week 23): 30-31 weeks

— US6632447B1, “Method for chemoprevention of prostate cancer” (The University of Tennessee Research Corporation, priority 1998, dated 2003)
